Laboratory results from PubChem BioAssay AID2060901 (Molecular Pharmacology Branch, DTP, NCI, 2025).
pIC50: −log10 of the molar value.

System: 422866-222-R5-J1-PDC complex spheroids viability
Assay: Anticancer human tumor 422866-222-R5-J1-PDC patient-derived pancreatic adenocarcinoma cell line growth inhibition [RAS]
Conditions: for pIC50: curve of first compound; for viability, T/C: stronger effect = lower value
Method in brief: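 Multi-cell-type spheroids: tumor cells plus HUVEC endothelial cells and mesenchymal stem cells. RAS-pathway inhibitors were combined with targeted agents, each dosed in half-log steps down from clinical Cmax, or from 10 microM when Cmax was unknown.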

[1] = second compound 0.0316 µM, first compound 0.0316 µM
[2] = second compound 0.0316 µM, first compound 0.1 µM
[3] = second compound 0.0316 µM, first compound 0.316 µM
[4] = second compound 0.0316 µM, first compound 1 µM
[5] = second compound 0.1 µM, first compound 0.0316 µM
[6] = second compound 0.1 µM, first compound 0.1 µM
[7] = second compound 0.1 µM, first compound 0.316 µM
[8] = second compound 0.1 µM, first compound 1 µM
[9] = second compound 0.316 µM, first compound 0.0316 µM
[10] = second compound 0.316 µM, first compound 0.1 µM
[11] = second compound 0.316 µM, first compound 0.316 µM
[12] = second compound 0.316 µM, first compound 1 µM
[13] = second compound 1 µM, first compound 0.0316 µM
[14] = second compound 1 µM, first compound 0.1 µM
[15] = second compound 1 µM, first compound 0.316 µM
[16] = second compound 1 µM, first compound 1 µM
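Note: spheroids exposed to compounds for 7 days.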
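Throughout, for viability, T/C: 100% = DMSO vehicle control viability.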

How did the pIC50 (second compound 0.00316 µM) turn out when `CC(C)NCC(C(=O)N1CCN(c2ncnc3c2C(C)CC3O)CC1)c1ccc(Cl)cc1` (centres undefined) + C=CC(=O)N1CCN(c2nc(OCC3CCCN3C)nc3c(F)c(-c4nc(N)cc(C)c4C(F)(F)F)c(Cl)cc23)C(C)C1 was run?
The pIC50 was greater than 7.50.

And the pIC50 (second compound 0.01 µM)?
The pIC50 was greater than 7.50.

And the pIC50 (second compound 0.0316 µM)?
Its pIC50 is greater than 7.50.

What about the pIC50 (second compound 0.1 µM) of the same compound?
The pIC50 was greater than 7.50.

And the pIC50 (second compound 0.316 µM)?
Its pIC50 is greater than 7.50.

And the pIC50 (second compound 1 µM)?
Its pIC50 is greater than 7.50.

What about the viability, T/C (second compound 0.00316 µM, first compound 0.0316 µM) of the same compound?
Its viability, T/C is 27.2%.

And the viability, T/C (second compound 0.00316 µM, first compound 0.1 µM)?
The viability, T/C was 32.1%.

And the viability, T/C (second compound 0.00316 µM, first compound 0.316 µM)?
The viability, T/C was 19.7%.

What about the viability, T/C (second compound 0.00316 µM, first compound 1 µM) of the same compound?
Its viability, T/C is 17%.

What about the viability, T/C (second compound 0.00316 µM, first compound 3.16 µM) of the same compound?
The viability, T/C was 16.7%.

What about the viability, T/C (second compound 0.00316 µM, first compound 10 µM) of the same compound?
The viability, T/C was 16.7%.

What about the viability, T/C (second compound 0.01 µM, first compound 0.0316 µM) of the same compound?
Its viability, T/C is 23.3%.

What about the viability, T/C (second compound 0.01 µM, first compound 0.1 µM) of the same compound?
The viability, T/C was 24.8%.

What about the viability, T/C (second compound 0.01 µM, first compound 0.316 µM) of the same compound?
The viability, T/C was 17.9%.

And the viability, T/C (second compound 0.01 µM, first compound 1 µM)?
Its viability, T/C is 12.2%.

And the viability, T/C (second compound 0.01 µM, first compound 3.16 µM)?
Its viability, T/C is 12.6%.

What about the viability, T/C (second compound 0.01 µM, first compound 10 µM) of the same compound?
The viability, T/C was 13.3%.

What about the viability, T/C [1] of the same compound?
Its viability, T/C is 27.9%.

And the viability, T/C [2]?
Its viability, T/C is 22%.

What about the viability, T/C [3] of the same compound?
The viability, T/C was 14.4%.

And the viability, T/C [4]?
Its viability, T/C is 14.9%.

What about the viability, T/C (second compound 0.0316 µM, first compound 3.16 µM) of the same compound?
The viability, T/C was 14.2%.

What about the viability, T/C (second compound 0.0316 µM, first compound 10 µM) of the same compound?
The viability, T/C was 14.3%.

What about the viability, T/C [5] of the same compound?
Its viability, T/C is 21.6%.

And the viability, T/C [6]?
Its viability, T/C is 19.2%.

What about the viability, T/C [7] of the same compound?
Its viability, T/C is 15.2%.

And the viability, T/C [8]?
The viability, T/C was 12%.

And the viability, T/C (second compound 0.1 µM, first compound 3.16 µM)?
The viability, T/C was 13%.

And the viability, T/C (second compound 0.1 µM, first compound 10 µM)?
Its viability, T/C is 12.8%.

What about the viability, T/C [9] of the same compound?
The viability, T/C was 24.1%.

What about the viability, T/C [10] of the same compound?
The viability, T/C was 16.4%.

And the viability, T/C [11]?
Its viability, T/C is 14.8%.

And the viability, T/C [12]?
Its viability, T/C is 13.6%.

And the viability, T/C (second compound 0.316 µM, first compound 3.16 µM)?
Its viability, T/C is 12.7%.

What about the viability, T/C (second compound 0.316 µM, first compound 10 µM) of the same compound?
The viability, T/C was 16.6%.

What about the viability, T/C [13] of the same compound?
Its viability, T/C is 23.6%.

What about the viability, T/C [14] of the same compound?
Its viability, T/C is 15.2%.

And the viability, T/C [15]?
Its viability, T/C is 16.7%.

And the viability, T/C [16]?
Its viability, T/C is 12.5%.

What about the viability, T/C (second compound 1 µM, first compound 3.16 µM) of the same compound?
The viability, T/C was 13.9%.

What about the viability, T/C (second compound 1 µM, first compound 10 µM) of the same compound?
The viability, T/C was 12.6%.

With `Nc1ccn(C2OC(CO)C(O)C2(F)F)c(=O)n1` (centres undefined) + C#Cc1c(F)ccc2cc(O)cc(-c3ncc4c(N5CC6CCC(C5)N6)nc(OCC56CCCN5CC(F)C6)nc4c3F)c12 as the compound, how does the pIC50 (second compound 0.0316 µM) read?
Its pIC50 is 6.95.

What about the pIC50 (second compound 0.1 µM) of the same compound?
The pIC50 was 7.53.

And the pIC50 (second compound 0.316 µM)?
The pIC50 was 7.80.

What about the pIC50 (second compound 1 µM) of the same compound?
The pIC50 was greater than 8.50.

And the pIC50 (second compound 3.16 µM)?
The pIC50 was greater than 8.50.

What about the pIC50 (second compound 10 µM) of the same compound?
The pIC50 was greater than 8.50.

What about the viability, T/C (second compound 0.0316 µM, first compound 0.00316 µM) of the same compound?
The viability, T/C was 90.8%.

What about the viability, T/C (second compound 0.0316 µM, first compound 0.01 µM) of the same compound?
Its viability, T/C is 84.9%.

And the viability, T/C [1]?
Its viability, T/C is 65.7%.

What about the viability, T/C [2] of the same compound?
The viability, T/C was 51.1%.

What about the viability, T/C [3] of the same compound?
Its viability, T/C is 42.1%.

What about the viability, T/C [4] of the same compound?
Its viability, T/C is 34.1%.

And the viability, T/C (second compound 0.1 µM, first compound 0.00316 µM)?
The viability, T/C was 108%.

What about the viability, T/C (second compound 0.1 µM, first compound 0.01 µM) of the same compound?
Its viability, T/C is 65.6%.

What about the viability, T/C [5] of the same compound?
Its viability, T/C is 52.4%.

What about the viability, T/C [6] of the same compound?
The viability, T/C was 37.6%.

What about the viability, T/C [7] of the same compound?
Its viability, T/C is 39.6%.

And the viability, T/C [8]?
Its viability, T/C is 38.5%.

And the viability, T/C (second compound 0.316 µM, first compound 0.00316 µM)?
The viability, T/C was 63.9%.

And the viability, T/C (second compound 0.316 µM, first compound 0.01 µM)?
The viability, T/C was 49.8%.

What about the viability, T/C [9] of the same compound?
Its viability, T/C is 48.8%.

What about the viability, T/C [10] of the same compound?
Its viability, T/C is 45.6%.

What about the viability, T/C [11] of the same compound?
Its viability, T/C is 38.1%.

And the viability, T/C [12]?
Its viability, T/C is 41.9%.

And the viability, T/C (second compound 1 µM, first compound 0.00316 µM)?
The viability, T/C was 41.2%.

What about the viability, T/C (second compound 1 µM, first compound 0.01 µM) of the same compound?
Its viability, T/C is 41.3%.

What about the viability, T/C [13] of the same compound?
The viability, T/C was 32.4%.

And the viability, T/C [14]?
Its viability, T/C is 35.9%.

And the viability, T/C [15]?
The viability, T/C was 33.3%.

And the viability, T/C [16]?
The viability, T/C was 25.5%.

What about the viability, T/C (second compound 3.16 µM, first compound 0.00316 µM) of the same compound?
Its viability, T/C is 25.8%.

What about the viability, T/C (second compound 3.16 µM, first compound 0.01 µM) of the same compound?
Its viability, T/C is 29.7%.

What about the viability, T/C (second compound 3.16 µM, first compound 0.0316 µM) of the same compound?
Its viability, T/C is 24.5%.

What about the viability, T/C (second compound 3.16 µM, first compound 0.1 µM) of the same compound?
Its viability, T/C is 27.7%.

And the viability, T/C (second compound 3.16 µM, first compound 0.316 µM)?
Its viability, T/C is 23.4%.

And the viability, T/C (second compound 3.16 µM, first compound 1 µM)?
Its viability, T/C is 23%.

And the viability, T/C (second compound 10 µM, first compound 0.00316 µM)?
Its viability, T/C is 24.8%.

What about the viability, T/C (second compound 10 µM, first compound 0.01 µM) of the same compound?
Its viability, T/C is 26.2%.

What about the viability, T/C (second compound 10 µM, first compound 0.0316 µM) of the same compound?
The viability, T/C was 23.3%.

What about the viability, T/C (second compound 10 µM, first compound 0.1 µM) of the same compound?
Its viability, T/C is 19.8%.

And the viability, T/C (second compound 10 µM, first compound 0.316 µM)?
Its viability, T/C is 21.6%.

What about the viability, T/C (second compound 10 µM, first compound 1 µM) of the same compound?
The viability, T/C was 17.8%.
